# Laboratory results reported in EP0584223B1, “NOVEL IMMUNOSUPPRESSIVE COMPOUNDS” (VERTEX PHARMACEUTICALS INCORPORATED, priority 1991, dated 1992).
# Experiments:
# FKBP = FKBP (Homo sapiens, UniProt P62942); assay: Inhibition of FKBP PPIase (rotamase) activity, chymotrypsin-coupled assay; assay type: biochemical; details: apparent Ki
# Excerpt: The inhibition of the PPIase (rotamase) enzyme activity of the FKBP (apparent "Ki" values) can also be measured according to the methods described by either Harding, M.W. et al., Nature 341:758-760 (1989) or Siekierka, J.J. et al., Nature 341:755-757 (1989). The cis-trans isomerization of the […] peptide bond in a model substrate, N-succinyl-Ala-Ala-Pro-Phe-p-nitroanilide, is monitored spectrophotometrically in a coupled assay with chymotrypsin, which releases 4-nitroanilide from the trans form of the substrate. Fischer, G. et al., Nature 337:476-478 (1989). The inhibitory effect of the addition of different concentrations of inhibitor on the extent of the reaction is determined, and analysis of the change in first order rate constant as a function of inhibitor concentration yields an estimate of the apparent Ki value.
# [1] = tested on: PBLs stimulated with JVM human viral-transformed B lymphoblastoid cell line; assay: MLR bioassay, PBLs stimulated with JVM cells; assay type: cell-based; details: mixed lymphocyte reaction, JVM stimulator cells, inhibition of proliferation, read-out: JVM
# Excerpt: (§1) Fresh peripheral blood lymphocytes (PBLs) from LeukoPak cells or whole blood from random normal blood donors (tested HIV-negative and hepatitis negative) are isolated and separated by density centrifugation over Histopaque 1077 (Sigma Chemical Co., St. Louis, MO). The murine CTLL cytotoxic T cell line and the human Jurkat T cell line are from ATCC (CTLL-2 ATCC TIB214, JURKAT CLONE E6-1 ATCC TIBl52). The human allogeneic B cell lines used for activation of the fresh PBLs are EBV-transformed lymphocytes from normal healthy adult donors with two completely different HLA haplotypes. All cell lines were routinely tested for the presence of Mycoplasma contamination using the Gibco Mycotect test kit and are Mycoplasma-free. Culture medium consists of RPMI 1640 (Gibco, Grand Island, NY) containing penicillin (50 U/ml) and streptomycin (50 µg/ml), L-glutamine 2 mM, 2 mercaptoethanol (5 x 10^-5), 10% heat-inactivated FCS and 10 mM HEPES.
# (§2) All chemical stocks were dissolved in DMSO.
# (§3) Antigen activated proliferation of PBLs in a primary mixed lymphocyte reaction was assessed in the presence or absence of different concentrations of tested compounds and control drugs. 5 x 10^4 fresh PBLs were stimulated with 5 x 10^3 of Mitomycin C treated-allogeneic EBV-transformed […] cells, LB and JVM, in a final volume of 200 µl per well in 96-well round-bottomed plates (Mishell, B.B. and S.M. Shiigi, Selected Methods in Cellular Immunology W.H. Freeman and Co., San Francisco, CA (1980); Nelson, P.A. et al., Transplantation 50:286 (1990)). Cultures were pulsed on day 6, harvested 24 h later and counted as in previous section.
# [2] = tested on: human peripheral blood lymphocytes (PBC); assay: Mitogenesis assay, PMA plus ionomycin stimulated proliferation; assay type: cell-based; details: Lymphocyte, read-out: PMA
# [3] = tested on: CTLL-20 murine T cell line; assay: IL-2 microassay, IL-2 dependent CTLL proliferation; assay type: cell-based; details: Mus musculus; inhibition of proliferation of cytotoxic T cells stimulated by IL-2; read-out: CTLL
# [4] = tested on: PBLs stimulated with LB human viral-transformed B lymphoblastoid cell line; assay: MLR bioassay, PBLs stimulated with LB cells; assay type: cell-based; details: mixed lymphocyte reaction, LB stimulator cells, inhibition of proliferation, read-out: LB
# Excerpt: as §1, §2, §3
# [5] = tested on: human peripheral blood lymphocytes (PBC); assay: Mitogenesis assay, OKT3 stimulated proliferation; assay type: cell-based; details: Lymphocyte, OKT3 (10^-4 dilution final), inhibition of proliferation, 3H-thymidine, read-out: OKT3
# FKBP, sequence (P62942 whole entry): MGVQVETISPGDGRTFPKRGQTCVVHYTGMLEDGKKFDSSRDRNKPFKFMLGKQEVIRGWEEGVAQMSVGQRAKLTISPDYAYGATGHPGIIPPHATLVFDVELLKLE
SMILES,Ki (FKBP) [µM],IC50 [1] [µM],IC50 ([2]; 3 h) [µM],IC50 [3] [µM],IC50 [4] [µM],IC50 [5] [µM],IC50 [2] [µM]
"COc1cc(C(=O)C(=O)N2CCCC[C@H]2C(=O)OC(CCCc2ccccc2)c2cccc(Oc3ccccc3)c2)cc(OC)c1OC (mixture of isomers) [Compound 4, (R and S)-1-(3-Phenoxy)phenyl-4-phenyl-1-butyl (S)-N-(3,4,5-trimethoxyphenylglyoxyl)pipecolate]",0.22,> 10,> 10,> 10,> 10,> 10,
"COc1cc(C(=O)C(=O)N2CCCC[C@H]2C(=O)OC(CCCc2ccccc2)CCc2cccnc2)cc(OC)c1OC (mixture of isomers) [Compound 7, (R and S)-6-Phenyl-1-(3-pyridyl)-3-hexyl (S)-N-(3,4,5-trimethoxyphenylglyoxyl)pipecolate]",,5,2,2,5,2,
"COc1cc(C(=O)C(=O)N2CCCC[C@H]2C(=O)OC(CCCc2ccccc2)CCCc2cccnc2)cc(OC)c1OC (mixture of isomers) [Compound 9, (R and S)-1-Phenyl-7-(3-pyridyl)-4-heptyl (S)-N-(3,4,5-trimethoxyphenylglyoxyl)pipecolate]",,6,1.8,2.5,6,1.2,
"COc1cc(C(=O)C(=O)N2CCCC[C@H]2C(=O)OC(CCCc2ccccc2)CCCc2ccc[n+]([O-])c2)cc(OC)c1OC (mixture of isomers) [Compound 22, (R and S)-1-Phenyl-7-(3-pyridyl)-4-heptyl (S)-N-(3,4,5-trimethoxyphenylglyoxyl)pipecolate N-oxide]",,2.5,,2.3,2.2,1.6,1.5
"COc1cc(C(=O)C(=O)N2CCCC[C@H]2C(=O)OC(CCCc2ccccc2)CCCc2ccccc2)cc(OC)c1OC [Compound 3, (S)-1,7-Diphenyl-4-heptanyl N-(3,4,5-trimethoxyphenylglyoxyl)pipecolate]",,8.5,> 8,8,10,2.25,
COc1cc(C(=O)C(=O)N2CCCC[C@H]2C(=O)OC(CCCc2ccccc2)CCCn2cnc3ccccc32)cc(OC)c1OC (stereo partly shown) [Compound 15],,8,,5,6,3,3
O=C(C(=O)N1CCCC[C@H]1C(=O)OC(CCCc1ccccc1)CCCc1cccnc1)c1ccccc1 (stereo partly shown) [Compound 18],0.056,9,5,7,8,7,
COc1cc(C(=O)C(=O)N2CCCC[C@H]2C(=O)OC(CCCc2ccccc2)CCCn2ccc3cccnc32)cc(OC)c1OC (stereo partly shown) [Compound 23],,6,,3.5,7,7,5
COc1cc(C(=O)C(=O)N2CCCC[C@H]2C(=O)OC(CCCCc2ccccc2)CCCc2ccccc2)cc(OC)c1OC (stereo partly shown) [Compound 32],0.02,> 10,9,7.5,> 10,8,
COc1cc(C(=O)C(=O)N2CCCC[C@H]2C(=O)OC(CCCc2ccccc2)c2ccccc2O)cc(OC)c1OC (stereo partly shown) [Compound 38],,> 10,,> 10,> 10,5,> 10

# Now from value to compound, other results behind:
Ki (FKBP) [µM],SMILES,IC50 [1] [µM],IC50 ([2]; 3 h) [µM],IC50 [3] [µM],IC50 [4] [µM],IC50 [5] [µM],IC50 [2] [µM]
0.024,"COc1cc(C(=O)C(=O)N2CCCC[C@H]2C(=O)OC(CCCc2c[nH]c3ccccc23)Cc2ccccc2)cc(OC)c1OC (mixture of isomers) [Compound 11, (R and S)-5-(3-indolyl)-1-phenyl-2-pentyl (S)-N-(3,4,5-trimethoxyphenylglyoxyl)pipecolate]",6.5,2.7,10,3.5,2,
0.057,"COc1cc(C(=O)C(=O)N2CCCC[C@H]2C(=O)OCC(CCc2ccccc2)Cc2ccccc2)cc(OC)c1OC (mixture of isomers) [Compound 16, (R and S)-2-Benzyl-4-phenyl-1-butyl (S)-N-(3,4,5-trimethoxyphenylglyoxyl)pipecolate]",> 10,5,6,9,7,
0.036,"CC(C)(C)C(=O)C(=O)N1CCCC[C@H]1C(=O)OC(CCCc1ccccc1)CCCc1ccccn1 (mixture of isomers) [Compound 21, (R and S)-1-Phenyl-7-(2-pyridyl)-4-heptyl (S)-N-(tert-butylglyoxyl)-pipecolate]",7,7,4,6,3,
0.095,COc1cc(C(=O)C(=O)N2CCC[C@H]2C(=O)OC(CCCc2ccccc2)CCCc2ccccn2)cc(OC)c1OC (stereo partly shown) [Compound 2],7,3.5,4,8,1.5,
0.032,COc1cc(C(=O)C(=O)N2CCCC[C@H]2C(=O)OC(CCCc2ccccc2)Cc2ccccc2)cc(OC)c1OC (stereo partly shown) [Compound 10],8,5.5,6,5.5,4,
0.083,COc1cc(C(=O)C(=O)N2CCCC[C@H]2C(=O)OC(CCCc2ccccc2)CCc2ccccc2)cc(OC)c1OC (stereo partly shown) [Compound 12],10,7,8.1,10,5,
0.27,COc1ccc(CCC(CCCc2ccccc2)OC(=O)[C@@H]2CCCCN2C(=O)C(=O)c2ccccc2)cc1 (stereo partly shown) [Compound 14],> 10,> 10,> 10,> 10,> 10,
0.05,O=C(C(=O)N1CCCC[C@H]1C(=O)OC(CCCc1ccccc1)CCCc1ccccn1)c1ccccc1 (stereo partly shown) [Compound 19],10,6,5,10,8,
0.015,O=C(C(=O)N1CCCC[C@H]1C(=O)OC(CCCc1ccccc1)CCCc1cccnc1)c1cccc(OCc2ccccc2)c1 (stereo partly shown) [Compound 27],6,6,5,10,4,
0.011,C=CCOc1cccc(C(=O)C(=O)N2CCCC[C@H]2C(=O)OC(CCCc2ccccc2)CCCc2cccnc2)c1 (stereo partly shown) [Compound 28],9,5,3,8,6,
0.089,COc1cc(C(=O)C(=O)N2CCCC[C@H]2C(=O)OC(CCCc2ccccc2)c2ccccc2CO)cc(OC)c1OC (stereo partly shown) [Compound 33],4.5,5,3,2,5,
0.01,COc1cc(C(=O)C(=O)N2CCCC[C@H]2C(=O)OC(CCCc2ccccc2)c2cccnc2)cc(OC)c1OC (stereo partly shown) [Compound 39],5,6,2.5,,5.5,
1.1,COc1cc(C(=O)C(=O)N2CCCC[C@H]2C(=O)OC(CCCCc2ccccc2)CCCc2cccs2)cc(OC)c1OC (stereo partly shown) [Compound 40],> 10,> 10,10,> 10,> 10,
